Measurements from patent US20250346585A1 (Alexion Pharmaceuticals, Inc., priority 2022, published 2025).
Like-named read-outs stand apart in the source and are kept apart here.

Target: Human complement C1s enzyme (Homo sapiens (Human), UniProt P09871)
Experiment: Human C1s enzyme assay
Assay type: biochemical
Settings: read-out: IC50 (Stars)
Outline: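 IC50 derived by nonlinear regression of rate versus concentration, with rate taken from A405 kinetics (30 s intervals, 30 min) after adding 100 μM each Z-L-Lys-SBzl and DTNB. C1s from human serum, 1.16 nM, exposed to compound for 5 min at RT beforehand; buffer 50 mM Tris, 1 M NaCl, pH 7.5.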

[1] = Human complement C1s enzyme 1.16 nM, substrate Z-L-Lys-SBzl 100 μM, assay of Example 3
[2] = Human C1s enzyme assay of Example 3

Chain of Human complement C1s enzyme (P09871 438-688 limits assumed): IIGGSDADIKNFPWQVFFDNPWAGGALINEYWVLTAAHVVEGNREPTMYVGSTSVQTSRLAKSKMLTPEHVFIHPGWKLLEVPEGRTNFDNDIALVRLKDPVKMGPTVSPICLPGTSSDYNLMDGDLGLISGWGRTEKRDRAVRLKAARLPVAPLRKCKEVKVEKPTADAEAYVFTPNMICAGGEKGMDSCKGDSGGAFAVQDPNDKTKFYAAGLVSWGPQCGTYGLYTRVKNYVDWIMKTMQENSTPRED
Chain of Human complement C1s enzyme (P09871 16-437 partner limits assumed): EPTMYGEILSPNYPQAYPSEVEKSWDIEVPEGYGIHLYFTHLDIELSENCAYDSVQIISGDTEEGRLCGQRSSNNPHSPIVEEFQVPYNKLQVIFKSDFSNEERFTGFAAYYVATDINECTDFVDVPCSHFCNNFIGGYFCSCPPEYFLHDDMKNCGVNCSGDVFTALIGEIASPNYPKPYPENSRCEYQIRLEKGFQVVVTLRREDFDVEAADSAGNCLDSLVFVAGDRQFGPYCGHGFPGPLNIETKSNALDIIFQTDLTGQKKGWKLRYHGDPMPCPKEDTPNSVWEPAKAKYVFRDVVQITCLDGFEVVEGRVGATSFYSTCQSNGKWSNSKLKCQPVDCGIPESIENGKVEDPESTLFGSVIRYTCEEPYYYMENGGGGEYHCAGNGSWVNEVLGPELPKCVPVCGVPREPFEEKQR

| SMILES | IC50 [1] [nM] | IC50 [2] [nM] |
| --- | --- | --- |
| COC(=O)/N=C(/N)c1csc([C@@H](C)NC(=O)[C@@H]2C[C@](F)(CF)CN2C(=O)CNC(=O)c2ccc3c(c2)-c2ccccc2C3(F)F)c1 [Compound 250, methyl ((E)-amino(5-((R)-1-((2S,4R)-1-((9,9-difluoro-9H-fluorene-3-carbonyl)glycyl)-4-fluoro-4-(fluoromethyl)pyrrolidine-2-carboxamido)ethyl)thiophen-3-yl)methylene)carbamate] | < 100 | – |
| C[C@@H](NC(=O)[C@@H]1C[C@@H](OC(F)F)CN1C(=O)CNC(=O)c1ccc2c(c1)C(F)(F)c1ccccc1-2)c1cc(C(=N)N)cs1 [Compound 262, (2S,4R)—N—((R)-1-(4-carbamimidoylthiophen-2-yl)ethyl)-1-((9,9-difluoro-9H-fluorene-2-carbonyl)glycyl)-4-(difluoromethoxy)pyrrolidine-2-carboxamide] | < 100 | – |
| Nc1csc(-c2csc(CNC(=O)[C@@H]3CC4(CN3C(=O)CNC(=O)c3ccc(Oc5ccc(F)cc5)cc3)OCCO4)c2)n1 [Compound 184, (S)—N-((4-(4-aminothiazol-2-yl)thiophen-2-yl)methyl)-7-((4-(4-fluorophenoxy)benzoyl)glycyl)-1,4-dioxa-7-azaspiro[4.4]nonane-8-carboxamide] | – | > 1000 |
| N=C(N)c1csc(CNC(=O)[C@@H]2CC3(CN2C(=O)CNC(=O)c2cccc(-c4ccccc4)n2)OCCO3)c1 [Compound 146, (S)—N-((4-carbamimidoylthiophen-2-yl)methyl)-7-((6-phenylpicolinoyl)glycyl)-1,4-dioxa-7-azaspiro[4.4]nonane-8-carboxamide] | – | < 100 |
| COC[C@@]1(F)C[C@@H](C(=O)N[C@H](C)c2cc(C(=N)N)cs2)N(C(=O)CNC(=O)c2ccc3cc4ccccc4cc3c2)C1 [Compound 224, (2S,4R)-1-[2-(anthracen-2-ylformamido)acetyl]-N-[(1R)-1-(4-carbamimidoylthiophen-2-yl)ethyl]-4-fluoro-4-(methoxymethyl)pyrrolidine-2-carboxamide] | < 100 | – |

Next, values leading:

| IC50 [1] [nM] | IC50 [2] [nM] | SMILES |
| --- | --- | --- |
| < 100 | – | N=C(N)c1csc(CNC(=O)[C@@H]2CC3(CN2C(=O)CNC(=O)c2ccc(-c4ccc(F)nc4)cc2)OCCO3)c1 [Compound 209, (S)—N-((4-carbamimidoylthiophen-2-yl)methyl)-7-((4-(6-fluoropyridin-3-yl)benzoyl)glycyl)-1,4-dioxa-7-azaspiro[4.4]nonane-8-carboxamide] |
| – | < 100 | Cc1ccc(-c2cccc(C(=O)NCC(=O)N3CC4(C[C@H]3C(=O)N[C@H](C)c3cc(C(=N)N)cs3)OCCO4)c2)cc1 [Compound 120, (S)—N—((R)-1-(4-carbamimidoylthiophen-2-yl)ethyl)-7-((4′-methyl-[1,1′-biphenyl]-3-carbonyl)glycyl)-1,4-dioxa-7-azaspiro[4.4]nonane-8-carboxamide] |
| < 100 | – | C[C@@H](NC(=O)[C@@H]1C[C@@H](S(C)(=O)=O)CN1C(=O)CNC(=O)c1ccc2[nH]c3ccccc3c2c1)c1cc(C(=N)N)cs1 [Compound 340, N-(2-((2S,4R)-2-(((R)-1-(4-carbamimidoylthiophen-2-yl)ethyl)carbamoyl)-4-(methylsulfonyl)pyrrolidin-1-yl)-2-oxoethyl)-9H-carbazole-3-carboxamide] |
| – | < 100 | C[C@@H](NC(=O)[C@@H]1CC2(CN1C(=O)CNC(=O)c1ccc3c(c1)-c1ccccc1C3)OCCO2)c1cc(C(=N)N)cs1 [Compound 111, (S)-7-((9H-fluorene-3-carbonyl)glycyl)-N—((R)-1-(4-carbamimidoylthiophen-2-yl)ethyl)-1,4-dioxa-7-azaspiro[4.4]nonane-8-carboxamide] |
| – | < 100 | COC[C@@]1(F)C[C@@H](C(=O)N[C@H](C)c2cc(C(=N)N)cs2)N(C(=O)CNC(=O)c2ccc(Oc3ccccc3)c(C)c2)C1 [Compound 34, (2S,4R)—N—((R)-1-(4-carbamimidoylthiophen-2-yl)ethyl)-4-fluoro-4-(methoxymethyl)-1-((3-methyl-4-phenoxybenzoyl)glycyl)pyrrolidine-2-carboxamide] |
